Data: US20090028804A1, “AhR mediators” (SYMRISE GmbH & Co. KG, priority 2005, published 2009)
Like-named read-outs stand apart in the source and are kept apart here.

Key:
AhR [1] = biological target: T1, AhR (Homo sapiens, UniProt P35869); assay: AhR translocation in primary mouse melanocytes transfected with pEGFP-AhR plasmid; assay type: cell-based; design: expressed in transfected cells; host or cells: primary mouse melanocytes; details: in the presence and absence of benzo[a]pyrene
T1 sequence (P35869 11-848): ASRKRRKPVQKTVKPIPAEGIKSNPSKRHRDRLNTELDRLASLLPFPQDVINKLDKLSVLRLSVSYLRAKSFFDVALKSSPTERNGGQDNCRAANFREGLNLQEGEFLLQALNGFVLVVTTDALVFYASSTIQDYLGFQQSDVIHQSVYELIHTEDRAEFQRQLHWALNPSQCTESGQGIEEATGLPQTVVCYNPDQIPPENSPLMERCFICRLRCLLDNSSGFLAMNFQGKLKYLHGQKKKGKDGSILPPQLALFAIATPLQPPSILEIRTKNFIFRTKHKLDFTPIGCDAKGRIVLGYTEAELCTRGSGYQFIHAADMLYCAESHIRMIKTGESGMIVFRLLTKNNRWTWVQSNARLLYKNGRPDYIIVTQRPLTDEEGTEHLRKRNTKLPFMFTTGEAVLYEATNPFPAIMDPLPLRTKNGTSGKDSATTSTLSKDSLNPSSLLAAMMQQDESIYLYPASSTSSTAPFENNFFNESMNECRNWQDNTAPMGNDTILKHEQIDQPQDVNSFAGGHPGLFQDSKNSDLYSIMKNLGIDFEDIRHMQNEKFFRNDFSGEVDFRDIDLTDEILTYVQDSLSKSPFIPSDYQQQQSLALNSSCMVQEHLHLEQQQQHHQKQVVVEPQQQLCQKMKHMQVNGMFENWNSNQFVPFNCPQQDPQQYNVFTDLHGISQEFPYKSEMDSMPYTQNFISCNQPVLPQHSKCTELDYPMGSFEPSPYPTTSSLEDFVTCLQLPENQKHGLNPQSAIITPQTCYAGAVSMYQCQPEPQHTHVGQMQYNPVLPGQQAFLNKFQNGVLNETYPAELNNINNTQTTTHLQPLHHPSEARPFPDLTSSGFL
Experimental: Primary mouse melanocyte cells were plated out onto chambered microscope slides. Individual chambers were treated for 1 h with the test substances. After 24 h, the cells were transfected with the pEGFP-AhR plasmid. After a further 40 min, the cells were fixed. The microscope slides were evaluated by fluorescence microscopy. Translocation of the AhR, which is coupled to the GFP and thus fluoresces green, from the cytoplasm into the cell nucleus is visible.

[2] = system: primary mouse melanocytes; assay: Melanin content of primary mouse melanocytes, photometric at 405 nm; assay type: cell-based
Experimental: The cells were removed, lysed with 0.1% Triton-X100, centrifuged and the melanin content from the lysate pellet was determined photometrically in an ELISA reader at 405 nm after cell disruption with 1M NH4OH (4 h, 85° C.). The blank reading, which contained only NH4OH, was subtracted from the absorption value. In parallel, the protein content of the lysate supernatants was determined by the Bradford method.
Semiconfluent primary mouse melanocytes (culture conditions as above) were further cultured for 7 days with 10 μM MNF. The cells were removed, lysed with 0.1% Triton-X100, centrifuged and the melanin content from the lysate pellet was determined photometrically in an ELISA reader at 405 nm after cell disruption with 1M NH4OH (4 h, 85° C.). The blank reading, which contained only NH4OH, was subtracted from the absorption value.

AhR [3] = biological target: T1, AhR; assay: AhR translocation into the cell nucleus in HaCaT cells transfected with pEGFP-AhR plasmid; assay type: cell-based; design: host or cells: oral human keratinocyte cancer cells
Experimental: (§1) HaCaT keratinocytes were cultured in DMEM medium with 10% fetal calf serum. The cells were irradiated with UVB radiation in PBS (phosphate-buffered saline). For UVB irradiation, we used a TL20W/12RS lamp which contains four parallel tubes (Philips, Eindhoven, Netherlands) and emits the majority of its energy in the UVB range (290-320 nm). The emission peak of the lamp is at 310 nm. Control cells were subjected to identical treatment, but were not irradiated. In order to inhibit the AhR, the cells were treated with the test substance 1 h before irradiation.
HaCaT cells were plated out onto chambered microscope slides with a cell density of 5×10^4 cells/chamber. Some were pretreated with the test substance for 1 h. After 24 h, said cells were transfected with the pEGFP-AhR plasmid by means of the FuGene 6 transfection reagent (Roche, Mannheim, Germany) in accordance with the manufacturer's instructions After a further 24 h, transfected cells were irradiated with […] of UVB. After 40 min, the cells were fixed for 10 min with 4% paraformaldehyde and washed with PBS. The microscope slides were dried and mounted with Vectashield Mounting Medium (Vector Laboratories, Burlingame, Calif., USA). The AhR coupled to the GFP was visualized by means of a fluorescence microscope (Olympus, Hamburg, Germany) and photographed with a ColorViewXS digital camera (Olympus).

AhR [4] = biological target: T1, AhR; design: host or cells: oral human keratinocyte cancer cells; details: cited from earlier work
MMP-1 = details: cited from earlier work
[5] = Photostability on irradiation with UVB radiation; assay type: physicochemical; details: photostable = no more than 10 mol % converted on UVB (40 W/m^2) for 2 hours
Experimental: For the purposes of the present invention, a photostable substance is one which, on irradiation with UVB radiation (40 W/m^2) for 2 hours, is no more than 10 mol % converted into one or more other substances. All-trans-retinoic acid, for example, is accordingly not a preferred AhR antagonist, as this substance is photolabile.

CYP1A1 = assay: UVB-induced CYP1A1 induction in HaCaT keratinocytes, real time RT-PCR; assay type: cell-based, human
Experimental: as §1
HaCaT cells were irradiated with 100 J/m^2 of UVB. Some cells were pretreated with the test substance 1 h before irradiation. After 4 h, the RNA was prepared using the RNeasy kit (Qiagen, Hilden, Germany) in accordance with the manufacturer's instructions. Reverse transcription was carried out as described (Arch. Toxicol (2005) PMID 16205913). PCR fragments were amplified by means of real-time PCR in a LightCycler (Roche, Mannheim, Germany). The PCR mix was made up of 1/10 volume of QuantiTec® SYBR Green PCR Master Mixes F (Qiagen, Hilden, Germany), 0.5 μM of the particular primer, 2 μl of cDNA and DEPC-treated (diethyl pyrocarbonate-treated) H2O in a final volume of 20 μl. […] PCR conditions were as follows: 40 cycles of 15 sec 94° C. for denaturation, 25 sec 60° C. for primer attachment, 30 sec 72° C. for extension and 2 sec 72° C. for fluorescence measurement. […] The PCR products were quantified by means of a fragment-specific standard curve and analysis with LightCycler Software 3. […]
HaCaT cells were irradiated with 100 J/m^2 of UVB. […] The PCR mix was made up of 1/10 volume of QuantiTect® SYBR Green PCR Master Mixes (Qiagen, Hilden, Germany), 0.5 μM of the particular primer, 2 μl of cDNA and DEPC-treated (diethyl pyrocarbonate-treated) H2O in a final volume of 20 μl. […] PCR conditions were as follows: 40 cycles of 15 sec 94° C. for denaturation, 25 sec 60° C. for primer attachment, 30 sec 72° C. for extension and 2 sec 72° C. for fluorescence measurement. […]

AhR [6] = biological target: T1, AhR; details: human breast epithelium cells; cited from earlier work
AhR [7] = biological target: T1, AhR; details: human liver cancer cell line HepG2; cited from earlier work
AhR [8] = biological target: T1, AhR; details: human breast cancer cell line MCF-7; cited from earlier work
[9] = in the absence of UVB radiation

COc1cc(-c2cc(=O)c3ccccc3o2)ccc1[N+](=O)[O-] [3-methoxy-4-nitroflavone]
AhR translocation into the cell nucleus (AhR [1]): inhibited AhR translocation
melanin content versus untreated cells ([2]; 10 μM, 7 days, p<0.05 (FIG. 4)): significantly less melanin
AhR translocation into the cell nucleus (AhR [3]; HaCaT, in the presence and absence of UVB light): inhibited AhR translocation

CC1=C(/C=C/C(C)=C/C=C/C(C)=C/C(=O)O)C(C)(C)CCC1 [All-trans-retinoic acid]
AhR activity (AhR [4]; in the absence of TCDD): without influencing AhR activity
TCDD-induced AhR activation (AhR [4]; normal human keratinocytes): inhibits TCDD-induced AhR activation
TCDD-induced expression of MMP-1 (MMP-1): enhancing TCDD-induced expression of MMP-1
photostability [5]: photolabile

C/C=C/c1cc(OC)c2c(c1)C(C)C(c1ccc(O)c(OC)c1)O2 (stereo not drawn) [Compound (X)]
CYP1A1 inhibition in the presence of UVB light (CYP1A1; 0.0001 wt. %, HaCaT, 100 J/m^2 UVB, relative to control (PBS without test substances with 0.1% DMSO, UVB-irradiated)): 20%
induction of CYP1A1 as a result of AhR activation in the presence of UVB light (CYP1A1; HaCaT, UVB light): inhibited induction of CYP1A1
induction of an AhR-inducible gene, in particular CYP1A1, by the compound itself (CYP1A1; [9]): does not itself bring about induction
translocation of AhR from the cytoplasm into the cell nucleus induced by the compound itself (AhR [3]; [9]): do not induce translocation of AhR

O=Cc1c2[nH]c3ccccc3c2cc2[nH]c3ccccc3c12 [FICZ, formylindolo(3,2b)carbazole]
AhR translocation into the cell nucleus (AhR [1]): stimulated AhR translocation
melanin content versus untreated cells ([2]; 2 days with UVB-irradiated 50 mM tryptophan solution containing FICZ, p<0.05 (FIG. 3)): significantly more melanin

O=C1c2ccccc2-c2n[nH]c3cccc1c23 [anthra[1,9-cd]pyrazol-6(2H)-one]
action of the AhR agonist TCDD (AhR [6]): capable of inhibiting the action

O=c1cc(-c2ccc(O)c(O)c2)oc2cc(O)cc(O)c12 [luteolin]
action of AhR (AhR [7]): acts as an AhR inhibitor
action of AhR (AhR [8]): has no effect

O=c1c(O)c(-c2ccc(O)c(O)c2)oc2cc(O)cc(O)c12 [quercetin]
action of AhR (AhR [7]): has no effect
action of AhR (AhR [8]): prevents the action of AhR
